Consider 65 compounds from patent US8278337B2, “Substituted pyridines that are JNK inhibitors” (Merck Sharp & Dohme, priority 2006, dated 2012).

pIC50: −log10 of the molar value. Values joined by “and” are separate entries in the source; they are usually repeats but may differ in a detail not shown here. Identical values can stand only once.

Sequence of JNK1 (P45983 whole entry, species assumed): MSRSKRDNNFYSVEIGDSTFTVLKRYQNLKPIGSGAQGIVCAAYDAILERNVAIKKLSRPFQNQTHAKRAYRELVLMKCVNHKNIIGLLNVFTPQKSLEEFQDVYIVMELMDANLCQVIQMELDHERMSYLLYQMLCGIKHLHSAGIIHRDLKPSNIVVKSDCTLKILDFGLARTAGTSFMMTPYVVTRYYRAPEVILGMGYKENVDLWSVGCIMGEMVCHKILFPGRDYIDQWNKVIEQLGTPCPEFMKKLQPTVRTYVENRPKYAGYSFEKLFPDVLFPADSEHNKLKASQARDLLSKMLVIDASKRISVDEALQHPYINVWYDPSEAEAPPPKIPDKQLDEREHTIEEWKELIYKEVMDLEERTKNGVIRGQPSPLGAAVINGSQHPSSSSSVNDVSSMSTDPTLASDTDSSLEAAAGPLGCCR

In one assay the target is JNK1 (Homo sapiens, UniProt P45983). As to the kind of experiment: DELFIA kinase assay, JNK1. It counts as biochemical. The following applies: DELFIA assay, 2 nM JNK1, 7 uM ATP, 10 min pre-incubation. As for the experimental part:
Assay DELFIA (Dissociation Enhanced Lanthanide Fluorescence Immuno-Assay) Assay:
Before initiation of kinase reactions, compounds were pre-incubated with the enzyme for 10 minutes. Pre-incubation reactions contained 50 mM HEPES pH 7.3, 10 mM MgCl2, 1 mM DTT, 75 mM NaCl, 1 mM EDTA, 1 mM EGTA, 0.01% CHAPS, 2 nM JNK1, 6 ug/mL biotinylated GST-ATF2, 0.1 mg/ml BSA, 5% DMSO and 0-100 μM compound in a total volume of 40 μL. After a 10 minute room temperature pre-incubation, 10 μL of 35 μM ATP was added to start the reaction (final concentration of ATP=7 uM). Reactions were incubated at room temperature for 30 minutes. A small aliquot (10 uL) was taken and quenched by adding into 190 uL of DELFIA Assay buffer containing 100 mM EDTA. The amount of phosphate transferred to biotinylated GST-ATF2 was measured using the Dissociation Enhanced Lanthanide Fluorescence Immuno-assay (DELFIA) from Perkin Elmer according to manufacturers protocol. Briefly, biotinylated GST-ATF2 was captured on streptavidin coated plates for 1 hour, washed twice, then incubated for 1 hour with a 1:1000 dilution of rabbit-anti-phospho-ATF2 antibody and a 1:3500 dilution of Europium-labeled anti-rabbit secondary antibody. Free antibody was removed with six washes, Europium was dissociated from the antibody, and Europium fluorescence was measured using an excitation wavelength of 340 nm and an emission wavelength of 615 nm. JNK2 and JNK3 kinase reactions were carried out similarly, with the exception that the final concentration of ATP was 4 uM and 2 uM, respectively.
Take `Cc1ccc2cc(-n3cc(CNC(=O)c4cccc(C(=O)NC(C)C)n4)cn3)ccc2n1` [Compound 149]: the negative logarithm of the IC50 (pIC50) is 7.85.

Still in this assay, the particulars now being: DELFIA assay, 2 nM JNK1, 7 uM ATP, 10 min pre-incubation; second table; read-out: JNK 1 IC50.
As for `Cc1ccc2cc(-n3cc(CNC(=O)c4cccc(C(=O)NC(C)C)n4)cn3)ccc2n1` [Compound 149], the pIC50 was 7.85.

Take `CC(C)NC(=O)c1cccc(C(=O)NCc2cnn(-c3ccc(S(N)(=O)=O)cc3)c2)n1` [Compound 241]: the pIC50 is 8.15.

The assay is the same for the next values; noted with them: DELFIA, biotinylated GST-ATF2 substrate, 10 minute pre-incubation, final ATP 7 uM.
`CC(C)NC(=O)c1cccc(C(=O)NCc2cnn(-c3cncc(F)c3)c2)n1` [Compound 153] gave a negative logarithm of the IC50 (pIC50) of 7.01 to 8.40. The compound `CC(C)NC(=O)c1cccc(C(=O)NCc2ccc(-c3ccccn3)s2)n1` [Compound 118] showed a negative logarithm of the IC50 (pIC50) of 6.02 to 6.99. The compound `CC(C)NC(=O)c1cccc(C(=O)NCc2ccc(-c3cccc(S(C)(=O)=O)c3)cc2)n1` [Compound 193] had a pIC50 of 7.01 to 8.40. As to `CS(=O)(=O)c1ccc(-n2cc(CNC(=O)c3cccc(C(=O)NC4CCCCC4)n3)cn2)cc1` [Compound 77], the pIC50 is 7.01 to 8.40. The same measure, in the same setting: in the case of `CC(=O)N(C)c1cccc(C(=O)NCc2cnn(-c3cccc(C(F)(F)F)c3)c2)n1` [Compound 363] it was < 6.00 and 5.00 to 5.99. Take `CCOC(=O)N1CCC(NC(=O)c2cccc(C(=O)NCc3ccc(S(C)(=O)=O)cc3)n2)CC1` [Compound 43]: the pIC50 was 6.02 to 6.99.

Turning to `COc1cccc2ccc(C(=O)NCc3ccc(S(C)(=O)=O)cc3)nc12` [Compound 383], the negative logarithm of the IC50 (pIC50) is 6.02 to 6.99. In turn, `CC(C)NC(=O)c1cccc(C(=O)NCc2cccc(-c3cccc(C#N)c3)c2)n1` [Compound 189] showed a pIC50 of 7.01 to 8.40. Still for that read-out and setting: with `C[C@@H](CO)NC(=O)c1cccc(C(=O)NCc2ccc3nc(N)sc3c2)n1` [Compound 6] the figure was 7.01 to 8.40; with `CC(C)NC(=O)c1cccc(C(=O)NCc2nccs2)n1` [Compound 104], 5.00 to 5.99 and < 6.00. On the same count and under the same terms, in the case of `Cc1nc2cc(-n3cc(CNC(=O)c4cccc(C(=O)NC(C)C)n4)cn3)ccc2[nH]1` [Compound 146] it was 7.01 to 8.40.

`CC(C)NC(=O)c1cccc(C(=O)NCc2ccc(-c3cccc(C#N)c3)nc2)n1` [Compound 178]: the negative logarithm of the IC50 (pIC50) is 6.02 to 6.99. `CC(C)NC(=O)c1cccc(C(=O)NCc2ccc(N)nc2)n1` [Compound 113] had a negative-log IC50 (pIC50) of 6.02 to 6.99. The same measure, in the same setting: with `CCOC(=O)c1cnn(-c2cccc(C(=O)NCc3ccc(S(C)(=O)=O)cc3)n2)c1` [Compound 319] the figure was < 6.00 and 5.00 to 5.99; with `CC(C)NC(=O)c1cccc(C(=O)NCc2cnn(-c3ccc(CN)cc3)c2)n1` [Compound 143], 7.01 to 8.40. `CC(C)NC(=O)c1cccc(C(=O)N[C@@H](C)c2ccc(O)cc2)n1` [Compound 124] gave a negative logarithm of the IC50 (pIC50) of 6.02 to 6.99. Same read-out and setting: in the case of `CS(=O)(=O)c1ccc(CNC(=O)c2cccc(-n3cc(Br)cn3)n2)cc1` [Compound 328] it was 6.02 to 6.99; in that of `CS(=O)(=O)c1ccc(CNC(=O)c2cccc(-c3cc4ccccc4[nH]3)n2)cc1` [Compound 339], < 6.00 and 5.00 to 5.99; in that of `CS(=O)(=O)c1ccc(CNC(=O)c2cccc(C(=O)NC3CCN(c4ccncc4)CC3)n2)cc1` [Compound 275], 5.00 to 5.99 and < 6.00. On the same count and under the same terms, with `Nc1nc2ccc(CNC(=O)c3cccc(Cl)n3)cc2s1` [Compound 261] the figure was < 6.00.

The compound `CCOC(=O)N1CCC(NC(=O)c2cccc(C(=O)NCc3ccc(-n4cccn4)cc3)n2)CC1` [Compound 72] showed a pIC50 of 6.02 to 6.99. Consider `Nc1nc2ccc(CNC(=O)c3cccc(C(=O)NCCCO)n3)cc2s1` [Compound 17], for which the pIC50 is < 6.00. Regarding `CNCCNc1nc2ccc(CNC(=O)c3cccc(C(=O)NC(C)C)n3)cc2s1` [Compound 203], the pIC50 is 7.01 to 8.40. With `Cc1ccn(-c2cccc(C(=O)NCc3ccc(S(C)(=O)=O)cc3)n2)n1` [Compound 324], the pIC50 was 5.00 to 5.99 and < 6.00. As for `NC(=O)c1cccc(C(=O)NCc2ccc3nc(N)sc3c2)n1` [Compound 52], the pIC50 was 6.02 to 6.99. The same measure, in the same setting: in the case of `CC(O)CNC(=O)c1cccc(C(=O)NCc2ccc3nc(N)sc3c2)n1` (centres unmarked) [Compound 19] it was < 6.00.

The compound `CC(C)(C)c1nnc(-c2cccc(C(=O)NCc3cnn(-c4ccc(S(C)(=O)=O)cc4)c3)n2)o1` [Compound 302] gave a pIC50 of 6.02 to 6.99. Consider `Nc1nc2ccc(CNC(=O)c3cccc(C(=O)NC4CCN(Cc5ccccc5)CC4)n3)cc2s1` [Compound 30], for which the negative logarithm of the IC50 (pIC50) is < 6.00.

Compound `CCOC(=O)N1CCC(NC(=O)c2cccc(C(=O)NCc3ccc4c(c3)OCO4)n2)CC1` [Compound 44] showed a negative logarithm of the IC50 (pIC50) of 6.02 to 6.99. On the same count and under the same terms, with `CCC(C)NC(=O)c1cccc(C(=O)NCc2ccc3nc(N)sc3c2)n1` (centres unmarked) [Compound 7] the figure was 7.01 to 8.40; with `CC(C)NC(=O)c1cccc(C(=O)NCc2cnn(C)c2)n1` [Compound 116], < 6.00 and 5.00 to 5.99. For the compound `CCNC(=O)c1cccc(C(=O)NCc2ccc3nc(N)sc3c2)n1` [Compound 14], the negative logarithm of the IC50 (pIC50) was < 6.00. `CC(C)NC(=O)c1cccc(C(=O)NCc2ccc(Cl)nc2)n1` [Compound 99] had a negative-log IC50 (pIC50) of 6.02 to 6.99. Turning to `CC(C)CCNC(=O)c1cccc(C(=O)NCc2ccc3nc(N)sc3c2)n1` [Compound 71], the pIC50 is 6.02 to 6.99. As for `Cc1cc(C)n(-c2cccc(C(=O)NCc3ccc(S(C)(=O)=O)cc3)n2)n1` [Compound 320], the pIC50 was < 6.00 and 5.00 to 5.99. As to `CC(C)NC(=O)c1cccc(C(=O)NCc2ccc(-c3cccc(Cl)c3)nc2)n1` [Compound 176], the negative-log IC50 (pIC50) was 6.02 to 6.99.

Turning to `Nc1nc2ccc(CNC(=O)c3cccc(C(=O)N[C@H](CO)Cc4ccccc4)n3)cc2s1` [Compound 22], the pIC50 is < 6.00.

The compound `Cc1cc(NC(=O)c2cccc(C(=O)NCc3cnn(-c4ccc(S(C)(=O)=O)cc4)c3)n2)no1` [Compound 78] had a pIC50 of 7.01 to 8.40. In turn, `COc1cccc(-c2cccc(C(=O)NCc3ccc(S(C)(=O)=O)cc3)n2)c1F` [Compound 330] had a pIC50 of 6.02 to 6.99. Regarding `Nc1nc2ccc(CNC(=O)c3cccc(C(=O)NCCN4CCOCC4)n3)cc2s1` [Compound 26], the pIC50 is < 6.00. `C[C@@H](CNC(=O)c1cccc(C(=O)NCc2ccc3nc(N)sc3c2)n1)c1ccccc1` [Compound 70] gave a pIC50 of 6.02 to 6.99. As to `Cc1ccc2cc(-n3cc(CNC(=O)c4cccc(C(=O)NC(C)C)n4)cn3)ccc2n1` [Compound 149], the pIC50 was 7.72 to 8.40 and 7.01 to 8.40. Regarding `CNc1cccc(C(=O)NCc2cnn(-c3cccc(C(F)(F)F)c3)c2)n1` [Compound 362], the pIC50 is 6.02 to 6.99. The compound `Nc1nc2ccc(CNC(=O)c3cccc(C(=O)NC[C@H](O)c4ccccc4)n3)cc2s1` [Compound 25] gave a pIC50 of 6.02 to 6.99. For the compound `CC(C)NC(=O)c1cccc(C(=O)NCc2ccc(-c3ccc(S(C)(=O)=O)cc3)nc2)n1` [Compound 181], the negative logarithm of the IC50 (pIC50) is 6.02 to 6.99. As to `CC(C)NC(=O)c1cccc(C(=O)NCc2cnn(-c3ccc(S(N)(=O)=O)cc3)c2)n1` [Compound 241], the pIC50 is 7.01 to 8.40 and 7.72 to 8.40. As to `O=C(NCc1cnn(-c2cccc(C(F)(F)F)c2)c1)c1cccc(N2CCC(c3ccccn3)C2)n1` (centres unmarked) [Compound 346], the negative-log IC50 (pIC50) is 5.00 to 5.99 and < 6.00. `Nc1nc2ccc(CNC(=O)c3cccc(C(=O)NC4CCCC4)n3)cc2s1` [Compound 67] had a pIC50 of 6.02 to 6.99. `Nc1nc2ccc(CNC(=O)c3cccc(C(=O)N4CCCCC4CO)n3)cc2s1` (centres unmarked) [Compound 36]: the pIC50 was < 6.00. `CS(=O)(=O)c1ccc(CNC(=O)c2cccc(C(=O)NC3CCN(c4ccccn4)CC3)n2)cc1` [Compound 273] showed a pIC50 of 6.02 to 6.99. Same read-out and setting: in the case of `Nc1nc2ccc(CNC(=O)c3cccc(C(=O)NC[C@@H](O)c4ccccc4)n3)cc2s1` [Compound 24] it was < 6.00. Consider `Nc1nc2ccc(CNC(=O)c3cccc(C(=O)N4CCCC(O)C4)n3)cc2s1` (centres unmarked) [Compound 34], for which the negative-log IC50 (pIC50) was < 6.00. Regarding `CCS(=O)(=O)N1CCC(NC(=O)c2cccc(C(=O)NCc3ccc(S(C)(=O)=O)cc3)n2)CC1` [Compound 60], the pIC50 was < 6.00.

Consider `Cc1nc2ccc(CNC(=O)c3cccc(-n4cc(I)cn4)n3)cc2[nH]1` [Compound 290], for which the pIC50 was 6.02 to 6.99.

The compound `CC(C)NC(=O)c1cccc(C(=O)NCc2ccc3nc(NC(=O)N(C)C)sc3c2)n1` [Compound 207] had a negative logarithm of the IC50 (pIC50) of 7.01 to 8.40.

For the compound `CC(C)NC(=O)c1cccc(-n2cc(I)cn2)n1` [Compound 287], the pIC50 is < 6.00 and 5.00 to 5.99. On to `CC(C)NC(=O)c1cccc(-c2nc3ccccc3[nH]2)n1` [Compound 377], for which the pIC50 is < 6.00 and 5.00 to 5.99. As to `CCOC(=O)N1CCC(NC(=O)c2cccc(Nc3ccc(N4CCOCC4)cc3)n2)CC1` [Compound 390], the pIC50 was < 6.00. `Cc1nn(-c2ccccc2)c(C)c1CNC(=O)c1cccc(C(=O)NC(C)C)n1` [Compound 105]: the negative logarithm of the IC50 (pIC50) was 5.00 to 5.99 and < 6.00. Regarding `CC(C)NC(=O)c1cccc(C(=O)NCc2ccn(-c3ccc(S(C)(=O)=O)cc3)n2)n1` [Compound 309], the pIC50 is 6.02 to 6.99. Still for that read-out and setting: with `Cc1ccnn1-c1cccc(C(=O)NCc2ccc(S(C)(=O)=O)cc2)n1` [Compound 325] the figure was 5.00 to 5.99 and < 6.00; with `CC(C)(C)c1nnc(-c2cccc(C(=O)NCc3ccc(S(C)(=O)=O)cc3)n2)o1` [Compound 303], < 6.00 and 5.00 to 5.99. Consider `CS(=O)(=O)c1ccc(CNC(=O)c2cccc(-n3cc(-c4cnccn4)cn3)n2)cc1` [Compound 335], for which the pIC50 is 6.02 to 6.99. In turn, `CC(C)NC(=O)c1cccc(C(=O)NCc2ccc(-n3cccn3)cc2)n1` [Compound 109] gave a pIC50 of 6.02 to 6.99. Turning to `CC(C)NC(=O)c1cccc(C(=O)NC(C)c2ccc(S(C)(=O)=O)cc2)n1` (centres unmarked) [Compound 121], the pIC50 is 6.02 to 6.99.

Broadly, the pIC50 is the negative decadic logarithm of the IC50, by convention in mol/L.
